Active and inactive are the calls of the source. No cut-off for these calls is given here.
Columns and labels:
[1] = target: T1, Kinesin-like protein KIF15 (Homo sapiens) (UniProt Q9NS87); experiment: Inhibition of recombinant His6-tagged Kif15 (N700 residues) (unknown origin) expressed in HeLa cells assessed as reduction in Alexa-594 labelled microtubule gliding at 30 uM measured every 2 secs for 20 secs by epifluorescence microscopic analysis relative to control; format: cell-based
T1 sequence (whole entry): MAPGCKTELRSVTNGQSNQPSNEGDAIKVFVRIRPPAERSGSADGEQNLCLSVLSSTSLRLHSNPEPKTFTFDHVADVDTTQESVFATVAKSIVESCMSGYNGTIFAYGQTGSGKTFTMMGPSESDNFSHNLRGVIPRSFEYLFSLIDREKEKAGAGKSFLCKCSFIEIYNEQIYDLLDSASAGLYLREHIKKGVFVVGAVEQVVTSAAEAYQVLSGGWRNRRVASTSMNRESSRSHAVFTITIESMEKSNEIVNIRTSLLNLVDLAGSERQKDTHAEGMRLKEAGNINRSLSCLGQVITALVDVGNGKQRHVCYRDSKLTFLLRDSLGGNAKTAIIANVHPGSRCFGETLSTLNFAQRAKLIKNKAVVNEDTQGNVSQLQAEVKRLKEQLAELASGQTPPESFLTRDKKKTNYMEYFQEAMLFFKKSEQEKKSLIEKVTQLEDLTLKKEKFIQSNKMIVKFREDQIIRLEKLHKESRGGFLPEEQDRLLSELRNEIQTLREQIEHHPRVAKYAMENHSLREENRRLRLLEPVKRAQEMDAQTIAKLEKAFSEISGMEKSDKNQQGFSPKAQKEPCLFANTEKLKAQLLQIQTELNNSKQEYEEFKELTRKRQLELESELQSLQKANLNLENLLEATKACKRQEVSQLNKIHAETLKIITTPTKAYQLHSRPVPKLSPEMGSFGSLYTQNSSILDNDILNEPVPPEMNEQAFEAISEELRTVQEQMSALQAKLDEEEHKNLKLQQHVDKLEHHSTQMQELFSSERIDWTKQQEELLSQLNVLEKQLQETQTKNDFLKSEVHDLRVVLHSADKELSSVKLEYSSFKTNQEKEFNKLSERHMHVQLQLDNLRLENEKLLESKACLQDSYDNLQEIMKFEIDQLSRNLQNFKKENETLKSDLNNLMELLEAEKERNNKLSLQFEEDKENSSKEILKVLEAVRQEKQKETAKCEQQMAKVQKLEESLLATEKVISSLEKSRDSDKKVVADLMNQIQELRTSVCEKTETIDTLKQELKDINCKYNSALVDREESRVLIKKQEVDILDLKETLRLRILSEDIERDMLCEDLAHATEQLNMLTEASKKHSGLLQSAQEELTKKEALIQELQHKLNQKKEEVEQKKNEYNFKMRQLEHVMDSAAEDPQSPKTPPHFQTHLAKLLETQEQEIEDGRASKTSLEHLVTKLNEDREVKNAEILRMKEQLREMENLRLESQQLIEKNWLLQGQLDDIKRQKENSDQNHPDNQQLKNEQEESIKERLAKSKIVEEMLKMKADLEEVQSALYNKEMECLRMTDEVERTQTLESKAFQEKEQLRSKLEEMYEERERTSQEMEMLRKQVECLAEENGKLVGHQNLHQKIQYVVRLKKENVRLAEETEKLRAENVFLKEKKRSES

[2] = target: T2, Kinesin-like protein KIFC1 (Homo sapiens) (UniProt Q9BW19); experiment: Inhibition of recombinant His6-tagged HSET (unknown origin) assessed as reduction in Alexa-594 labelled microtubule gliding at 30 uM measured every 2 secs for 20 secs by epifluorescence microscopic analysis relative to control
T2 sequence (whole entry): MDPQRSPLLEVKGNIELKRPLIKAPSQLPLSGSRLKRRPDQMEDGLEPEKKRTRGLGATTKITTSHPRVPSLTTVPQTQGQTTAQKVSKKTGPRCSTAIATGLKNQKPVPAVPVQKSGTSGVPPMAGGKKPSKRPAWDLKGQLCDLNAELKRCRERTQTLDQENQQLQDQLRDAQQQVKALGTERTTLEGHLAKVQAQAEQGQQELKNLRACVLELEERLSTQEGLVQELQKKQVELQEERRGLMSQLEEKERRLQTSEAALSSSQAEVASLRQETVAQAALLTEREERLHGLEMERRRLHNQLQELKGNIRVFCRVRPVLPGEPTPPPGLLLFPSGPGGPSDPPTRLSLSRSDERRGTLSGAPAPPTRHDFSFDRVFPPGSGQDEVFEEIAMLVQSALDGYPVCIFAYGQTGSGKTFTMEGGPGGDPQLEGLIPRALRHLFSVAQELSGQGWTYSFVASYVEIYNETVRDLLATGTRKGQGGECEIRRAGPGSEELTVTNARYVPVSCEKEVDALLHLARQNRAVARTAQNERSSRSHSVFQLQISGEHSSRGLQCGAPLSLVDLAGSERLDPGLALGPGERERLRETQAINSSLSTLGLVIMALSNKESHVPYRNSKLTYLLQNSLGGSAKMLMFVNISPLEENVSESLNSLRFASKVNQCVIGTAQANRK

[3] = target: T1, Kinesin-like protein KIF15 (Homo sapiens); experiment: Inhibition of Kif15 in TP53-deficient human RPE1 cells assessed as reduction in spindle-bound Kif15 level at 25 uM after 24 hrs by Hoechst 33342 staining based immunofluorescence microscopic analysis relative to control
[4] = target: T1, Kinesin-like protein KIF15 (Homo sapiens); experiment: Inhibition of Kif15 in K51-resistant human KIRC1 cells assessed as cells with monopolar spindles at 25 uM after 24 hrs by Hoechst 33342 staining based immunofluorescence microscopic analysis (reference value: 43 to 49%); set-up: scale not given: the % may be the effect or the level left
[5] = target: T1, Kinesin-like protein KIF15 (Homo sapiens); experiment: (§1) ATP non-competitive inhibition of recombinant His6-tagged Kif15 ATPase activity (N700 residues) (unknown origin) expressed in HeLa cells at 0.5 to 2 uM using microtubule as substrate preincubated for 30 mins followed by varying levels of ATP addition by double reciprocal Lineweaver-Burk plot analysis
[6] = target: T1, Kinesin-like protein KIF15 (Homo sapiens); experiment: as §1, with “using varying levels of” for “using”, “by” for “by varying levels of”; format: cell-based

## O=C1Nc2ccc(C(=O)c3ccco3)cc2/C1=C/c1cc(Cl)c(O)c(Cl)c1
[1]
  inhibition: 98.9%
[2]
  inhibition: 5.3%
[3]
  fold change (FC): 3
[4]
  Activity: 95%
[5]
  inhibition: Active
[6]
  inhibition: Active
